Values joined by “and” are separate entries in the source; they are usually repeats but may differ in a detail not shown here. Equal values may be shown once. Read-outs that look alike come from different tables or passages of the source.
How the values were obtained:
Test in all cases: SelectScreen kinase assay
CAMK1G (CAMKI gamma) = CAMK1G (CAMKI gamma) (Homo sapiens, UniProt Q96NX5); conditions: for Inhibition at 1 µM (%): CAMK1G (CAMKI gamma), ZLYTE, ATP Km app
Experimental: (§1) Selectivity profiling assays were performed by the Invitrogen SelectScreen™ Services. […] The concentration of ATP was selected to be equal to the KM, unless indicated otherwise.

PKN2 (PRK2) = PKN2 (PRK2) (Homo sapiens, UniProt Q16513)
Sequence of PKN2 (PRK2) (Q16513 whole entry): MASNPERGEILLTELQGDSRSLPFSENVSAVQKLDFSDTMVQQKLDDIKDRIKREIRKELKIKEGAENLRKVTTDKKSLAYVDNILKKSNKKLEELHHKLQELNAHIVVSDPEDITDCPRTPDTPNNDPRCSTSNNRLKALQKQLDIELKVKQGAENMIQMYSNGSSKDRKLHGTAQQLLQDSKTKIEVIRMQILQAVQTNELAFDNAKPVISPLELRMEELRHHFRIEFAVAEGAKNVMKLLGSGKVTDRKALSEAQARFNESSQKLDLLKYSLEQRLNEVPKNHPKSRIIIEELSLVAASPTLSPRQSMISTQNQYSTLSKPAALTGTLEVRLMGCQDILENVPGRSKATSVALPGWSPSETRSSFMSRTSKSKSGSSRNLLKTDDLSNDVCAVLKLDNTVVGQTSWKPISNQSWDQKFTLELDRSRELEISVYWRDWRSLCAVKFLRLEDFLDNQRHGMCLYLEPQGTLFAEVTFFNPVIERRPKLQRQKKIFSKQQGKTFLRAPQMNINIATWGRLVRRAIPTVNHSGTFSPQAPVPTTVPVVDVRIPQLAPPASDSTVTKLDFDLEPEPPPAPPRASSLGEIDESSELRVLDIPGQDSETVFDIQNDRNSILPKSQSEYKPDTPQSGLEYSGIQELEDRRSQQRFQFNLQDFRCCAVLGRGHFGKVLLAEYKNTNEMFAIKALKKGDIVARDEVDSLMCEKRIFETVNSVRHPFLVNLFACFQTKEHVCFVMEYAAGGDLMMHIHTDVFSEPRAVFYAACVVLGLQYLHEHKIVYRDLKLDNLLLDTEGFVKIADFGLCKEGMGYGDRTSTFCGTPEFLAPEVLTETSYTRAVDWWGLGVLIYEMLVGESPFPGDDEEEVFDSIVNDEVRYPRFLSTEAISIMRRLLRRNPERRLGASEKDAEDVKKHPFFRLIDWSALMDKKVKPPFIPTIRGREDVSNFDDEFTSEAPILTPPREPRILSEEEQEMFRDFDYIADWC
Experimental: as §1

ERBB4 (HER4) = ERBB4 (HER4) (Homo sapiens, UniProt Q15303); conditions: for Inhibition at 1 µM (%): ERBB4 (HER4), ZLYTE, ATP Km app
Sequence of ERBB4 (HER4) (Q15303 26-1308): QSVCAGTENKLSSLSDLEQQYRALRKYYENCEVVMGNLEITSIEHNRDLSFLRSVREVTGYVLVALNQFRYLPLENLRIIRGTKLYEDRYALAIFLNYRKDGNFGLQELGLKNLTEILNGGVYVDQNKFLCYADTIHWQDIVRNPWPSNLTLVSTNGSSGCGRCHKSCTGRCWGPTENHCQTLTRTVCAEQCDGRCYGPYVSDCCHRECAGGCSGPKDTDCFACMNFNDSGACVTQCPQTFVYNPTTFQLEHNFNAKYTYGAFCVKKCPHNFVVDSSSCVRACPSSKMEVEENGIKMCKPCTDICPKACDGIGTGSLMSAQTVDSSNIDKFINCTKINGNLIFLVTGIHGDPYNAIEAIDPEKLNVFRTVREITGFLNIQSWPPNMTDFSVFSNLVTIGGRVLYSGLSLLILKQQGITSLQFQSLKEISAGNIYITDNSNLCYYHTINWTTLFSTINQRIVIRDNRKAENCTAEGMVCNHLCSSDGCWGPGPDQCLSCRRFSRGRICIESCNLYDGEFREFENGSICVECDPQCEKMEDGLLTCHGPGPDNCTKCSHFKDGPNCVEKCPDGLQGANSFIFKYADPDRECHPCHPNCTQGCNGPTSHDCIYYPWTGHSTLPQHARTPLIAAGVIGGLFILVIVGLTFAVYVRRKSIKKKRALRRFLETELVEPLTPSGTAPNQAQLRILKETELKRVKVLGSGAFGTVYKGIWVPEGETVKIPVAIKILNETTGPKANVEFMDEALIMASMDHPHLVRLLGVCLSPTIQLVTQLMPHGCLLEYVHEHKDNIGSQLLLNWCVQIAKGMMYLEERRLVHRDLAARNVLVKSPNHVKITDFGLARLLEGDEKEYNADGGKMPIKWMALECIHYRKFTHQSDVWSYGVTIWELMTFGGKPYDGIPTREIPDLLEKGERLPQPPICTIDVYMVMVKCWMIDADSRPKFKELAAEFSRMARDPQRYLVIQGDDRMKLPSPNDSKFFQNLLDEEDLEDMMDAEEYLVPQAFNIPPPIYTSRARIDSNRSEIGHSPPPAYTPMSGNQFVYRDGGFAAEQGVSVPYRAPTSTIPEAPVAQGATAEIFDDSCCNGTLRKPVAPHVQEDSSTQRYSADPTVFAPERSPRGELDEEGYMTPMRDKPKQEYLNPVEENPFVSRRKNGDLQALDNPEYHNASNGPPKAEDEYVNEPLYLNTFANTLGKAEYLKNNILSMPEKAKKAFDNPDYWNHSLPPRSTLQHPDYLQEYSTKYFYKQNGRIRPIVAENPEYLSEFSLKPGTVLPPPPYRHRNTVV
Experimental: as §1

RPS6KA1 (RSK1) = RPS6KA1 (RSK1) (Homo sapiens, UniProt Q15418)
Sequence of RPS6KA1 (RSK1) (Q15418 whole entry): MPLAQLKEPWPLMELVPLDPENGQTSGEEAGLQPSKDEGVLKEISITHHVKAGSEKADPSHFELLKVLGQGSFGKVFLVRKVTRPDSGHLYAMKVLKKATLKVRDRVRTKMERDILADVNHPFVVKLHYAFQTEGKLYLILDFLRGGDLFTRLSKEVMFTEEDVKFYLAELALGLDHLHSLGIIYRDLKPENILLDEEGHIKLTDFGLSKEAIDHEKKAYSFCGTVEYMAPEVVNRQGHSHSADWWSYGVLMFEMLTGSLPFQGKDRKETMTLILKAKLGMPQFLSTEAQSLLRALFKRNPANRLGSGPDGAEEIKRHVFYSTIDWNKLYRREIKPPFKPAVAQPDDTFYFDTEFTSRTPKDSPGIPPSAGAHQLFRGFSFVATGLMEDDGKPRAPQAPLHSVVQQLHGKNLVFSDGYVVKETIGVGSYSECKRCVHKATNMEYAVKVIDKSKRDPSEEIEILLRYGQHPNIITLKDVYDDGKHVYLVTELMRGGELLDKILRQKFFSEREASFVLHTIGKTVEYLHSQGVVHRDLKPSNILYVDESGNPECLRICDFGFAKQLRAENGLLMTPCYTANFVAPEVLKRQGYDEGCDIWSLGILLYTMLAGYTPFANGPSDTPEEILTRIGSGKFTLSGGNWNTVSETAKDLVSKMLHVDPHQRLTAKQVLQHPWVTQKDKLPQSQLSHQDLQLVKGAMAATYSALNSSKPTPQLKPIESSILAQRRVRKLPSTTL
Experimental: as §1

STK23 (MSSK1) = STK23 (MSSK1) (Homo sapiens, UniProt Q9UPE1); conditions: for Inhibition at 1 µM (%): ZLYTE, ATP Km app
Sequence of STK23 (MSSK1) (Q9UPE1 whole entry): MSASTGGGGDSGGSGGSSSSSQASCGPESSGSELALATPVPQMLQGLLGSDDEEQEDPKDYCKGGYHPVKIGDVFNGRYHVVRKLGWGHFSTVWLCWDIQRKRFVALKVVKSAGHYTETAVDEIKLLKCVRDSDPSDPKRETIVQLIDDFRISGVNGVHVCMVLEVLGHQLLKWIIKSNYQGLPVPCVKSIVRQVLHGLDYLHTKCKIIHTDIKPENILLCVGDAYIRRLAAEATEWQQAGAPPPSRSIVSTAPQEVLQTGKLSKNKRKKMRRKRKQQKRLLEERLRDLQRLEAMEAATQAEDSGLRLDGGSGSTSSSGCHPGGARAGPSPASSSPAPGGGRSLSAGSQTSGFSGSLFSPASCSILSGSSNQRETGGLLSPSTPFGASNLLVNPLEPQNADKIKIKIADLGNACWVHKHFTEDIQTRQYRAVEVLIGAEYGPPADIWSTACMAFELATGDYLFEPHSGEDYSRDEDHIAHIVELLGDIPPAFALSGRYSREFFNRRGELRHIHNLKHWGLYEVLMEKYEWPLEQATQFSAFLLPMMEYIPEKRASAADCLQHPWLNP
Experimental: as §1

PI4KA (PI4K alpha) = PI4KA (PI4K alpha) (Homo sapiens, UniProt P42356)
Experimental: as §1

KSR2 = target: T1, KSR2 (Homo sapiens, UniProt Q6VAB6); conditions: for Inhibition at 1 µM (%): KSR2, ZLYTE, ATP Km app
T1 sequence (Q6VAB6 1-950): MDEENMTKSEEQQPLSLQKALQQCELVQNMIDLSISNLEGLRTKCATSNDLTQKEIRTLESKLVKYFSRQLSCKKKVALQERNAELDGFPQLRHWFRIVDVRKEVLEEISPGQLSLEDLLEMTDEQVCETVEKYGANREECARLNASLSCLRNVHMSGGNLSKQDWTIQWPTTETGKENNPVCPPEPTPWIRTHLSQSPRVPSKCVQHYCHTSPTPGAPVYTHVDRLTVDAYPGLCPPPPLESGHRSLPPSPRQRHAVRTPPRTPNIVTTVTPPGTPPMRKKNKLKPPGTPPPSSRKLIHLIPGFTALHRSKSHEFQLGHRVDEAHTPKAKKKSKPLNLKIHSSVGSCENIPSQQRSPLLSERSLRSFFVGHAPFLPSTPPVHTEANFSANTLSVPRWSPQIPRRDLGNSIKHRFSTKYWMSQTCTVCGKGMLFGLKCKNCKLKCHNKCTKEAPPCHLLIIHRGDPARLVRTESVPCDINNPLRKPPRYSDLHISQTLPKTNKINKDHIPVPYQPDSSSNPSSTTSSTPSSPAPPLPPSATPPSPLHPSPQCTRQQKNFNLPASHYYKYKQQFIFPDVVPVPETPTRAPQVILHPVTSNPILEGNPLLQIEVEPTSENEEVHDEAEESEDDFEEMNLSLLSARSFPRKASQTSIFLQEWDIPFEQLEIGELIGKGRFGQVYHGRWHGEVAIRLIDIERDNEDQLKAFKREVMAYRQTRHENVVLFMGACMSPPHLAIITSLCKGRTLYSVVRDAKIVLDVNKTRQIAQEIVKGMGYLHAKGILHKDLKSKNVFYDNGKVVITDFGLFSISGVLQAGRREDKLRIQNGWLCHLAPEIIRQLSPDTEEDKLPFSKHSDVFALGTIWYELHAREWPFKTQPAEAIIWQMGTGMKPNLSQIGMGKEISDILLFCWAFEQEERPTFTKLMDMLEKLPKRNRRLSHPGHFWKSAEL
Experimental: as §1

ERN1 = ERN1 (Homo sapiens, UniProt O75460); conditions: for Inhibition at 1 µM (%): ERN1, LanthaScreen Binding
Sequence of ERN1 (O75460 19-977): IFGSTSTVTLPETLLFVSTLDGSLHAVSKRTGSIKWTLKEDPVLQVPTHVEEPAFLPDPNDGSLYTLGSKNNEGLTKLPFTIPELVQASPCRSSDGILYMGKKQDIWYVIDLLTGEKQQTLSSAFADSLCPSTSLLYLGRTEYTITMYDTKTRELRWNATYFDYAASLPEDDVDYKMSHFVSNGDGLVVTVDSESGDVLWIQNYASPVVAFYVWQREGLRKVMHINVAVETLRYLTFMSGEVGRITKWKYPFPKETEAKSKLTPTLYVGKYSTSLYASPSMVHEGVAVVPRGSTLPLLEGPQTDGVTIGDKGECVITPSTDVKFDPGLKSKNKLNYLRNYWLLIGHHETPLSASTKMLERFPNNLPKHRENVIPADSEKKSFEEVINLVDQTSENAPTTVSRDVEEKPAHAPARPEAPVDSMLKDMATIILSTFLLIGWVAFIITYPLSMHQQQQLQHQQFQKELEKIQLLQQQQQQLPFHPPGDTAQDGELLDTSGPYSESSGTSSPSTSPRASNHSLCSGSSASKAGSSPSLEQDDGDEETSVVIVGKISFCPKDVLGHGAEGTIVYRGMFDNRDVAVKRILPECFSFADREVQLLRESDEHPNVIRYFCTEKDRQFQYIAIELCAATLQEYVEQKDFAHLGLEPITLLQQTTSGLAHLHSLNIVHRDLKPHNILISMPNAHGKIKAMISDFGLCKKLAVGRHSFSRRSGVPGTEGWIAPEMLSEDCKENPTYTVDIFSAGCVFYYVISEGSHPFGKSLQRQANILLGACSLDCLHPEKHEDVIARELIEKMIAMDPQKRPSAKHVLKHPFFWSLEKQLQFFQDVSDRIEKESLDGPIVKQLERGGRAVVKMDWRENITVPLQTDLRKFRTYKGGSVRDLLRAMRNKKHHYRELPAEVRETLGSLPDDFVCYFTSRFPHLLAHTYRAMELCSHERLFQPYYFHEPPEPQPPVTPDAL
Experimental: as §1

PKMYT1 = target: T2, PKMYT1 (Homo sapiens, UniProt Q99640)
T2 sequence (Q99640 1-499): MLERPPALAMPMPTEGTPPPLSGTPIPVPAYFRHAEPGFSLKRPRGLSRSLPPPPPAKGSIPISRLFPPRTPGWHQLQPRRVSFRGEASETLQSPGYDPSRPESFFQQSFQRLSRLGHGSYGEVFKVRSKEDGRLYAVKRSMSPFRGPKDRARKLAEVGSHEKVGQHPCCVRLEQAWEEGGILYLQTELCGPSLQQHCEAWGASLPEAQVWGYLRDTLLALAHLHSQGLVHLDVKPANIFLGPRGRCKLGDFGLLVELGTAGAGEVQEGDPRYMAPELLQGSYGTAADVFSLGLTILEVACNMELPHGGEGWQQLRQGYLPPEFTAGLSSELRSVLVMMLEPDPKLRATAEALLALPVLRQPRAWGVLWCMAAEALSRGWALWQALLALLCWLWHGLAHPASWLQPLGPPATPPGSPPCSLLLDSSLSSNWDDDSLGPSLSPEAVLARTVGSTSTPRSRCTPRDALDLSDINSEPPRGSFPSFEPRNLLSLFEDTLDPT
Experimental: as §1

[1] = 1 h, 1 μM WEL028, 1 h preincubation

Sequence of CAMK1G (CAMKI gamma) (Q96NX5 whole entry): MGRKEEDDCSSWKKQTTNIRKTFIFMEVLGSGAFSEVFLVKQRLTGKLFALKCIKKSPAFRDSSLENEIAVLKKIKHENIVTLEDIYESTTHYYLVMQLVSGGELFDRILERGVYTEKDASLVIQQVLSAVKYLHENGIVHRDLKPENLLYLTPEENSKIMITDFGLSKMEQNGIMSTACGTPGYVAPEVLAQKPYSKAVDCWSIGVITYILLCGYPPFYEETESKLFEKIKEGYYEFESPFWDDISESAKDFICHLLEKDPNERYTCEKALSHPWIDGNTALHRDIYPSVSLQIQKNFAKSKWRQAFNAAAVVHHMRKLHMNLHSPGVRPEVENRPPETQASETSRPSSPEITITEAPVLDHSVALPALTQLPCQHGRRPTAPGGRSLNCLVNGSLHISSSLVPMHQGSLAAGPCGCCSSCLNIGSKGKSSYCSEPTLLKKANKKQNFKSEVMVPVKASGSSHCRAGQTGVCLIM

C#CCOc1ccc(Nc2ncc(Cl)c(Nc3ccccc3NC(=O)C=C)n2)c(OC)c1 [Compound 6]
inhibition at 1 µM (CAMK1G (CAMKI gamma); [1]): 2%
Inhibition at 1 µM (%) (CAMK1G (CAMKI gamma)): 3%
Inhibition at 1 µM (%) (CAMK1G (CAMKI gamma); listed as WEL028, 1 µM): 1%
inhibition at 1 µM (PKN2 (PRK2); [1]): 8%
Inhibition at 1 µM (%) (PKN2 (PRK2); PKN2 (PRK2), 1 µM, LanthaScreen Binding, listed as WEL028, 1 µM): 9%
inhibition at 1 µM (PKN2 (PRK2); read-out: Inhibition at 1 µM (%), PKN2 (PRK2), 1 µM, LanthaScreen Binding): 6%
inhibition at 1 µM (ERBB4 (HER4); [1]): 8%
Inhibition at 1 µM (%) (ERBB4 (HER4)): 11%
Inhibition at 1 µM (%) (ERBB4 (HER4); listed as WEL028, 1 µM): 5%
Inhibition at 1 µM (%) (RPS6KA1 (RSK1); 1 µM, ZLYTE, ATP Km app, listed as WEL028, 1 µM): 0% and 10%
inhibition at 1 µM (RPS6KA1 (RSK1); [1]): 5%
Inhibition at 1 µM (%) (STK23 (MSSK1)): 2%
Inhibition at 1 µM (%) (STK23 (MSSK1); listed as WEL028, 1 µM): -4%
inhibition at 1 µM (STK23 (MSSK1); [1]): -1%
inhibition at 1 µM (PI4KA (PI4K alpha); [1]): 7%
Inhibition at 1 µM (%) (PI4KA (PI4K alpha); PI4KA (PI4K alpha), 1 µM, Adapta, ATP 10, listed as WEL028, 1 µM): 3% and 11%
inhibition at 1 µM (KSR2; [1]): 1%
Inhibition at 1 µM (%) (KSR2): 2%
Inhibition at 1 µM (%) (KSR2; listed as WEL028, 1 µM): 0%
inhibition at 1 µM (ERN1; [1]): 8%
Inhibition at 1 µM (%) (ERN1): 13%
Inhibition at 1 µM (%) (ERN1; listed as WEL028, 1 µM): 4%
Inhibition (%) (PKMYT1; 1 μM WEL028, 1 h preincubation): 13%
Inhibition at 1 µM (%) (PKMYT1; PKMYT1, 1 µM, LanthaScreen Binding, listed as WEL028, 1 µM): 9%
inhibition at 1 µM (PKMYT1; read-out: Inhibition at 1 µM (%), PKMYT1, 1 µM, LanthaScreen Binding): 17%
